Source: ChEMBL document CHEMBL4330073, “Discovery and development of small molecule modulators targeting glutamine metabolism” (Eur J Med Chem, 2019)

target: T1, Glutaminase kidney isoform, mitochondrial (Homo sapiens, UniProt O94925); experiment: Inhibition of human GAC after 10 mins by glutamate oxidase coupled Amplex UltraRed dye based assay
T1 sequence (O94925 whole entry): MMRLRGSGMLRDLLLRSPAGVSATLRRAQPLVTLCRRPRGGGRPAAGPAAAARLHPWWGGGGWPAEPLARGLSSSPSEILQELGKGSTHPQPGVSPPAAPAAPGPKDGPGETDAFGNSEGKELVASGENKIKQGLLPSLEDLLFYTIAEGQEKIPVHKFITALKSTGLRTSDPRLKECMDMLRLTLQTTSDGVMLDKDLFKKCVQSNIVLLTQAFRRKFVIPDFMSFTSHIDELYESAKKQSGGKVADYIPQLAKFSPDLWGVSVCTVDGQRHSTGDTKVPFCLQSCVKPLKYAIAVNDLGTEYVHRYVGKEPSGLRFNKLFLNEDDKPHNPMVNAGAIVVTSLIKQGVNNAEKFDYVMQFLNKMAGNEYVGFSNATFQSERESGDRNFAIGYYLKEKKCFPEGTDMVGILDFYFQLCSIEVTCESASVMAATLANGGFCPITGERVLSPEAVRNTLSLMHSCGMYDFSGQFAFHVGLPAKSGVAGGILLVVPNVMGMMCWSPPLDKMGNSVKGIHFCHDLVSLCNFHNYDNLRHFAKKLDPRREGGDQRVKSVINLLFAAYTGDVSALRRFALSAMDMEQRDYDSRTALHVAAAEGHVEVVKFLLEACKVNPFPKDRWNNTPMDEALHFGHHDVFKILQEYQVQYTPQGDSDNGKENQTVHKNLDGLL

`CNC(=O)c1cn(CCCCc2ccc(C(=O)NCc3ccccc3)nn2)nn1` and `O=C(Cc1ccccc1)Nc1nnc(CCCCn2cc(C(=O)NCc3ccccc3)nn2)s1` cannot be ordered by IC50: under 100 nM for the first, under 100 nM for the second.

First: O=C(NCc1ccccc1)c1cn(CCCCn2cc(C(=O)NCc3cccc(C(F)(F)F)n3)nn2)nn1
Second: O=C(NCc1cccc(C(F)(F)F)c1)c1cn(CCCCn2cc(C(=O)NCc3cccc(C(F)(F)F)n3)nn2)nn1
The IC50 of the first is higher: 100 to 500 nM for the first, under 100 nM for the second. The second is the more potent here.

`O=C(NCC1CCCCC1)c1cn(CCCCn2cc(C(=O)NCC3CCCCC3)nn2)nn1` gave an IC50 of over 500 nM.

target: T2, Glutaminase kidney isoform, mitochondrial (Homo sapiens) (UniProt O94925); experiment: Inhibition of recombinant GAC (unknown origin) at 0.1 uM after 15 mins in presence of NADPH by glutamate oxidase coupled spectrophotometric analysis relative to control
T2 sequence (whole entry): T1 sequence (O94925 whole entry)

`O=C(Cc1cccc(OC(F)(F)F)c1)Nc1ccc(CCCCc2nnc(NC(=O)Cc3ccccn3)s2)nc1` and `O=C(Cc1cccc(OC(F)(F)F)c1)Nc1cnc(CCCCc2nnc(NC(=O)Cc3ccccn3)s2)cn1` cannot be ordered by inhibition: under 25% for the first, under 25% for the second.

`Cc1nc(NC(=O)Cc2cccc(OC(F)(F)F)c2)ccc1CCCCc1nnc(NC(=O)Cc2ccccn2)s1` and `O=C(Cc1cccc(OC(F)(F)F)c1)Nc1ncc(CCCCc2nnc(NC(=O)Cc3ccccn3)s2)cn1` cannot be ordered by inhibition: under 25% for the first, under 25% for the second.

target: T1, Glutaminase kidney isoform, mitochondrial; experiment: Inhibition of GAC (unknown origin)

Compared with `O=C(Cc1ccccc1)Nc1nnc(CCCCc2cnc3[nH]c(Cc4ccccc4)nc3c2)s1`, `O=C(Cc1ccccc1)Nc1nnc(CCCCc2cc3cc(Cc4ccccc4)[nH]c3nn2)s1` is lower in IC50: over 500 nM for the first, under 100 nM for the second. The second is the more potent here.

First: O=C(Cc1ccccc1)Nc1nnc([C@@H]2CCC[C@H](c3nnc(NC(=O)Cc4ccccc4)s3)C2)s1
Second: O=C(Cc1ccccc1)Nc1nnc([C@H]2CCC[C@H](c3nnc(NC(=O)Cc4ccccc4)s3)C2)s1 (racemic)
The IC50 of the first is higher: 1000 to 2000 nM for the first, under 100 nM for the second.

`O=C(Cc1ccccc1)Nc1ccn(CCCCc2ccc(NC(=O)Cc3cccc(OC(F)(F)F)c3)nn2)c(=O)c1` and `O=C(Cc1ccccc1)Nc1ccn(CCCCn2cc(C(=O)NCc3cccc(OC(F)(F)F)c3)nn2)c(=O)c1` cannot be ordered by IC50: under 100 nM for the first, under 100 nM for the second.

`O=C(Cc1ccccc1)Nc1ccn(CCCCn2cc(C(=O)NCc3cccc(OC(F)(F)F)c3)nn2)c(=O)c1F` and `O=C(Cc1ccccc1)Nc1nnc(CCCCn2ccc(NC(=O)Cc3ccccc3)c(F)c2=O)s1` cannot be ordered by IC50: under 100 nM for the first, under 100 nM for the second.

Compared with `O=C(Cc1ccccc1)Nc1nnc(C[C@H]2C[C@@H]2Cc2nnc(NC(=O)Cc3ccccc3)s2)s1` (racemic), `O=C(Cc1ccccc1)Nc1nnc([C@@H]2CC[C@H](c3nnc(NC(=O)Cc4ccccc4)s3)C2)s1` is higher in IC50: 100 to 500 nM for the first, 1000 to 2000 nM for the second.

`O=C(Cc1ccccc1)Nc1ccn(CCCCc2cc3cc(Cc4ccccc4)[nH]c3nn2)c(=O)c1` and `O=C(NCc1ccccc1)c1cn(CCCCc2cc3cc(Cc4ccccc4)[nH]c3nn2)nn1` cannot be ordered by IC50: under 100 nM for the first, under 100 nM for the second.

`O=C(Cc1ccccc1)Nc1ccn(CCCCc2nnc(NC(=O)Cc3ccccc3)s2)c(=O)n1` and `O=C(Cc1ccccc1)Nc1ccn(CCCCc2nnc(NC(=O)Cc3ccccc3)s2)c(=O)c1` cannot be ordered by IC50: under 100 nM for the first, under 100 nM for the second.

First: O=C(Cc1ccccc1)Nc1ccn(CCCCn2ccc(NC(=O)Cc3ccccc3)nc2=O)c(=O)n1
Second: O=C(Cc1ccccc1)Nc1nnc([C@H]2CC[C@H](c3nnc(NC(=O)Cc4ccccc4)s3)C2)s1 (racemic)
The IC50 of the first is higher: over 500 nM for the first, 100 to 500 nM for the second.

target: T1, Glutaminase kidney isoform, mitochondrial; experiment: Inhibition of recombinant GAC (unknown origin) after 15 mins in presence of NADPH by glutamate oxidase coupled spectrophotometric analysis

`O=C(Cc1cccc(OC(F)(F)F)c1)Nc1ccc(CCCCc2nnc(NC(=O)Cc3ccccn3)s2)cn1` showed an IC50 of 50 to 100 nM.

organism: Bos taurus; experiment: Inhibition of bovine GDH

`O=C(O[C@@H]1Cc2c(O)cc(O)cc2O[C@@H]1c1ccc(O)c(O)c1)c1cc(O)c(O)c(O)c1` and `O=C(O[C@@H]1Cc2c(O)cc(O)cc2O[C@@H]1c1cc(O)c(O)c(O)c1)c1cc(O)c(O)c(O)c1` are the same in ED50: 300 nM for the first, 300 nM for the second.

target: T3, Cystine/glutamate transporter (Homo sapiens, UniProt Q9UPY5); experiment: Inhibition of xCT-mediated cystein/glutamate transporter (unknown origin) assessed as reduction in L-[14C]cyctein uptake
T3 sequence (Q9UPY5 whole entry): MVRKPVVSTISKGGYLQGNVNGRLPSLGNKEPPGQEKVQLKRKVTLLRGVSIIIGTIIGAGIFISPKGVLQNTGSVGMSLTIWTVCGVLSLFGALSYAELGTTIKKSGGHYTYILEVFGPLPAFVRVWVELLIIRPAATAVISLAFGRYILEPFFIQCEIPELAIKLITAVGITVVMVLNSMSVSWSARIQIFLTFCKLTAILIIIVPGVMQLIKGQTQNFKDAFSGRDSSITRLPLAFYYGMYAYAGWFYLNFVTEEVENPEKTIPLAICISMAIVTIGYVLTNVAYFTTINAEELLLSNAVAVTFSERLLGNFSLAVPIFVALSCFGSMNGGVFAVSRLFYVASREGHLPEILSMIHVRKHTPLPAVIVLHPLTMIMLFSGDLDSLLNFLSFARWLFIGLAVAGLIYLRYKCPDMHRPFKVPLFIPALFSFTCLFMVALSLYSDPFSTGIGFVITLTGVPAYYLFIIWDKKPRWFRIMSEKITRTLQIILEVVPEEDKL

First: O=C(O)c1cc(/N=N/c2ccc(S(=O)(=O)Nc3ccccn3)cc2)ccc1O [SULFASALAZINE]
Second: O=C(O)c1cc(C#Cc2ccc(S(=O)(=O)Nc3ccccn3)cc2)ccc1O
The IC50 of the first is lower: 160 to 30000 nM for the first, 70000 nM for the second. The first is the more potent here.

`O=C(O)c1cc(/C=C/c2ccc(S(=O)(=O)Nc3ccccn3)cc2)ccc1O` gave an IC50 of 30000 nM.
